Measured values taken from patent US10669276B2, “Fused pyrimidine derivatives” (Hoffmann-La Roche Inc., priority 2016, dated 2020).

Target: γ-secretase (Homo sapiens (Human), UniProt P49768)
Experiment: Cellular γ-secretase assay (Aβ42 secretion, AlphaLisa)
Type: cell-based
Conditions: inhibition of Aβ42 secretion; human neuroglioma H4 cells overexpressing human APP695 Swedish double mutation; 24 hr compound incubation
Experimental: Human neuroglioma H4 cells overexpressing human APP695 with the Swedish double mutation (K595N/M596L) were plated at 30,000 cells/well/100 μl in 96-well plates in IMDM media containing 10% FCS, 0.2 mg/l Hygromycin B and incubated at 37° C., 5% CO2.
3-4 hr post plating, compounds are a diluted in media and 50 μl is added as […] concentrate to achieve the final concentration. Compound incubation is performed for 24 hr. Final doses typically range from 4 μM down to 0.0013 μM in half-log steps resulting in an eight point dose response curve. Appropriate controls using vehicle only and reference compound were applied to this assay. The final concentration of Me2SO was 0.4%.
After incubation at 37° C., 5% CO2, the supernatant was subjected to quantification of secreted Aβ42 by the means of an AlphaLisa assay kit (Human Amyloid beta 1-42 Kit: Cat # AL203C, Perkin Elmer). 20 μl of the cell culture supernatant was transferred to an assay plate. Then 10 μl of a mixture of the AlphaLisa coupled capture antibody and the biotinylated detection antibody was added and incubated for 3 hours at room temperature while softly shaking the assay plate. After a further addition of 20 μl of the Donor beads the assay plate was incubated for 30 min at room temperature and constant shaking without exposure to direct light. The assay plate was then read on a Paradigm AlphaLisa Reader using the build-in program with excitation at 680 nm and emission at […]. The measured signals were then used to calculate IC50 values for inhibition of Aβ42 secretion by nonlinear regression fit analysis using XLfit 5.3 software (IDBS).

Row | Compound | EC50 [nM]
1 | CNc1nc(Nc2ccc(-n3cc(C)nc3C)c(F)c2)nc2c1C(C)(C)CN2c1ccc(F)cc1 [Example 11, N2-(4-(2,4-Dimethyl-1H-imidazol-1-yl)-3-fluorophenyl)-7-(4-fluorophenyl)-N4,5,5-trimethyl-6,7-dihydro-5H-pyrrolo[2,3-d]pyrimidine-2,4-diamine] | 33
2 | CNc1nc(Nc2cnc(-n3cnc(C)c3)c(OC)c2)nc2c1C(C)(C)CN2C1CC(F)(F)C1 [Example 18, 7-(3,3-Difluorocyclobutyl)-N2-(5-methoxy-6-(4-methyl-1H-imidazol-1-yl)pyridin-3-yl)-N4,5,5-trimethyl-6,7-dihydro-5H-pyrrolo[2,3-d]pyrimidine-2,4-diamine] | 14
3 | CNc1nc(Nc2ccc(-c3cnc(C)o3)c(F)c2)nc2c1C(C)(C)CN2c1ccc(F)cc1 [Example 16, N2-(3-Fluoro-4-(2-methyloxazol-5-yl)phenyl)-7-(4-fluorophenyl)-N4,5,5-trimethyl-6,7-dihydro-5H-pyrrolo[2,3-d]pyrimidine-2,4-diamine] | 30
4 | CNc1nc(Nc2ccc(-n3cnc(C)n3)nc2)nc2c1C(C)(C)CN2c1ccc(F)cc1 [Example 13, 7-(4-Fluorophenyl)-N4,5,5-trimethyl-N2-(6-(3-methyl-1H-1,2,4-triazol-1-yl)pyridin-3-yl)-6,7-dihydro-5H-pyrrolo[2,3-d]pyrimidine-2,4-diamine] | 23
5 | CNc1nc(Nc2ccc(-n3cnc(C)n3)c(OC)c2)nc2c1C(C)(C)CN2C12CC(C(F)(F)F)(C1)C2 [Example 21, N2-(3-Methoxy-4-(3-methyl-1H-1,2,4-triazol-1-yl)phenyl)-N4,5,5-trimethyl-7-(3-(trifluoromethyl)bicyclo[1.1.1]pentan-1-yl)-6,7-dihydro-5H-pyrrolo[2,3-d]pyrimidine-2,4-diamine] | 72
6 | CNc1nc(Nc2cnc(-n3cnc(Cl)c3)c(OC)c2)nc2c1C(C)(C)CN2c1ccc(F)cc1 [Example 6, N2-(6-(4-Chloro-1H-imidazol-1-yl)-5-methoxypyridin-3-yl)-7-(4-fluorophenyl)-N4,5,5-trimethyl-6,7-dihydro-5H-pyrrolo[2,3-d]pyrimidine-2,4-diamine] | 9
7 | CNc1nc(Nc2ccc(-c3nnc(C)o3)cc2)nc2c1C(C)(C)CN2c1ccc(F)cc1 [Example 47, 7-(4-Fluorophenyl)-N4,5,5-trimethyl-N2-(4-(5-methyl-1,3,4-oxadiazol-2-yl)phenyl)-6,7-dihydro-5H-pyrrolo[2,3-d]pyrimidine-2,4-diamine] | 55
8 | CNc1nc(Nc2cnc(-n3cnc(Cl)c3)c(OC)c2)nc2c1C(C)(C)CN2c1ccc(F)c(F)c1 [Example 14, N2-(6-(4-Chloro-1H-imidazol-1-yl)-5-methoxypyridin-3-yl)-7-(3,4-difluorophenyl)-N4,5,5-trimethyl-6,7-dihydro-5H-pyrrolo[2,3-d]pyrimidine-2,4-diamine] | 10

Compounds with a lower EC50, results first:

Row | EC50 [nM] | Compound
9 | 8 | CNc1nc(Nc2cnc(-n3cnc(C)c3)c(F)c2)nc2c1C(C)(C)CN2c1cccc(F)c1F [Example 42, 7-(2,3-Difluorophenyl)-N2-(5-fluoro-6-(4-methyl-1H-imidazol-1-yl)pyridin-3-yl)-N4,5,5-trimethyl-6,7-dihydro-5H-pyrrolo[2,3-d]pyrimidine-2,4-diamine]
10 | 4 | CNc1nc(Nc2ccc(-n3cnc(C)c3)c(F)c2)nc2c1C(C)(C)CN2c1ccc(F)cc1Cl [Example 45, 7-(2-Chloro-4-fluorophenyl)-N2-(3-fluoro-4-(4-methyl-1H-imidazol-1-yl)phenyl)-N4,5,5-trimethyl-6,7-dihydro-5H-pyrrolo[2,3-d]pyrimidine-2,4-diamine]
11 | 5 | CNc1nc(Nc2ccc(-n3cnc(C)n3)c(OC)c2)nc2c1C(C)(C)CN2c1ccc(F)cc1 [Example 1, 7-(4-Fluorophenyl)-N2-(3-methoxy-4-(3-methyl-1H-1,2,4-triazol-1-yl)phenyl)-N4,5,5-trimethyl-6,7-dihydro-5H-pyrrolo[2,3-d]pyrimidine-2,4-diamine]
12 | 6 | CNc1nc(Nc2cnc(-n3cnc(C)c3)c(F)c2)nc2c1C(C)(C)CN2c1ccc(F)cc1F [Example 26, 7-(2,4-Difluorophenyl)-N2-(5-fluoro-6-(4-methyl-1H-imidazol-1-yl)pyridin-3-yl)-N4,5,5-trimethyl-6,7-dihydro-5H-pyrrolo[2,3-d]pyrimidine-2,4-diamine]
